Test results taken from patent US20030077740A1, “Presenilin/Crk binding polypeptides (PCBP) and methods of use thereof” (priority 2001, published 2003).

How the values were obtained:
Crk = target: T1, Crk (Homo sapiens, UniProt P46108); assay: co-immunoprecipitation with Crk in 293T cells; type: binding; settings: anti-PBP-TAG immunoprecipitation, Western blot with antibody against Crk
T1 construct: expressed in transfected cells; host or cells: 293T cells
Method: Since PBP has two consensus sequences for Crk binding, the interaction between PBP and Crk was also examined. The expression plasmid containing PBP cDNA attached to TAG and a plasmid containing Crk cDNA were co-transfected into 293T cells. Forty-eight hrs later, cells were lysed and proteins immunoprecipitated with anti-PBP-TAG and run on SDS acrylamide gels.
For immunoprecipitation of the large hydrophilic loop of PSs or Crk with PBP, cells were lysed in RIPA buffer (100 mM NaCl, 0.5% NP-40, 0.5% DOC, 0.1% SDS, 50 mM Tris, pH 7.5, 1 mM PMSF and 1 μg/ml aprotinin, 1 μg/l leupeptin) on ice for 30 min. For immunoprecipitation of full length PS1 with PBP, RIPA buffer with 1% NP40 but without DOC and SDS was used. Cell lysates were spun for 10 min at 10,000 g. The resulting supernatants were preadsorbed with anti-mouse IgG-agarose (Sigma) for 4 hours at 4° C. After centrifugation, antibody 12CA5 and anti-mouse IgG-agarose were added at 4° C. overnight. After incubation with anti-mouse IgG-agarose, immunoprecipitates were subjected to SDS-polyacrylamide gel electrophoresis and transferred to Immobilon (Millipore, Bedford, Mass.). Western blot analysis with anti-FLAG and 12CA5 monoclonal antibodies or an antibody against Crk was then performed. The bound antibodies were detected by the ECL-plus chemiluminescence system (Amersham, Arlington Heights, Ill.).

B103 (APP695) cells [1] = assay: APP secretion by transfected B103 (APP695) cells, Western blotting; type: cell-based, rat
B103 (APP695) cells [2] = assay: intracellular APP level and pulse-chase turnover in B103 cells; type: cell-based, rat

T1 sequence (P46108 whole entry, species assumed): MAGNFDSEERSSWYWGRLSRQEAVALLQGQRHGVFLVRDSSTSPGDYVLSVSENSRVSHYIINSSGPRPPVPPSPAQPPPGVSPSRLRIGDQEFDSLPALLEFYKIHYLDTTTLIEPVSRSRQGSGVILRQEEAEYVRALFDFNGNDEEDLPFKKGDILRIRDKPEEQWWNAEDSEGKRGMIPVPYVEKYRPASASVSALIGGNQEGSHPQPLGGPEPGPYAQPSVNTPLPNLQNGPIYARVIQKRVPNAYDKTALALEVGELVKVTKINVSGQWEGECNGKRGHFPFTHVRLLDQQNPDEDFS

With “PBP: novel 2027 amino acid protein, 233 kD, binds presenilins and Crk; expressed from cDNA in cells (KYGVVICSFRGSVPQGLVLEIGETVQILEKCEGWYRGVSTKKPNVKGLFPANYIHLK; listed as Mus musculus)” the “co-precipitation with Crk” value (Crk) was “co-precipitates”, the “abundance of APP mRNAs” value (B103 (APP695) cells [1]; RT-PCR) was “not altered” and the “secretion of sAPPβ” value (B103 (APP695) cells [1]; antibodies 22C11, GID and 6E10, vs cells without PBP) was “Less secretion”. The sAPPα secretion (B103 (APP695) cells [1]; co-expression with WT PS1 or FAD PS1 (L392V), relative to PBP alone) was “further reduced”, the “secretion of β-laminin” value (B103 (APP695) cells [1]; specificity control) was “no effect” and the “secretion of sAPPα” value (B103 (APP695) cells [1]; stable clones vs empty vector, antibody 6E10) was “dramatically decreased”. The APP secretion (B103 (APP695) cells [1]; transient transfection, uncloned population) was “reduction”, the “intracellular APP protein level, pulse-chase” value (B103 (APP695) cells [2]; 10 min 35S-methionine label, chase 15-60 min) was “rapidly decreased” and the “full length APP, intracellular level” value (B103 (APP695) cells [2]; APP695/PBP relative to APP695 cells, antibodies 6E10 and 22C11) was “reduced”.
